Measurements as given in US8404721B2, “Compositions and methods for treating seizure disorders” (Allergan, Inc., priority 2009, dated 2013).

Tested on: Male C57B/6 mice
Assay: Pentylenetetrazol (PTZ)-induced convulsions in mice
Format: in vivo
Conditions: for Latency to first convulsion: convulsion level 3 or higher; for Number of events Myoclonic: level 3+level 4 events; for Number of events Myoclonic / Number of events Clonic / Number of events Tonic-Clonic: scored 10 minutes; for Number of events Clonic: level 5 events; for Number of events Tonic-Clonic: level 6+level 7 events
Protocol: Male C57B/6 mice (20-25 g) were administered intraperitoneal Compound A (1 mg/kg), Compound B (1 or 10 mg/kg), Compound C (1 mg/kg), diazepam (0.5 mg/kg), gabapentin (50 mg/kg), or vehicle (ddH 2O) prior to treatment with pentylenetetrazol (PTZ, 50 mg/kg IP). Compounds A, B, C, and gabapentin were administered 60 minutes before, and diazepam or vehicle was administered 30 minutes before PTZ. Immediately following PTZ injection, mice were individually placed in an observation cage and the latency to onset of first convulsion (level 3 or higher; Table 2) was recorded, as well as the number of each type of convulsion (see Table 2 for scoring method modified from the scale used by Rizwan et al, Pol. J. Pharmacol., 55(6):965-71 (2003)).
Level I and 2 behaviors were not considered convulsions, but were scored to keep track of any possible sedative or abnormal effect following drug treatment.
Data are expressed as the number of myoclonic convulsions (level 3+level 4 events), number of clonic convulsions (level 5 events), and number of tonic-clonic events (level 6+level 7 events; Table 3-1), as well as the latency to first convulsion onset (in seconds). The sum of each convulsion type/mouse (myclonic, clonic, or clonic-tonic) was entered into GraphPad Prism and analyzed by One-Way ANOVA with post-hoc Dunnett's Multiple Comparisons Tests relative to vehicle+PTZ. Overall significance was established when P<0.0125 (corrected for number of groups). Post-hoc comparisons were considered significant when P<0.05.

[1] = 1 mg/kg intraperitoneal, 60 minutes before PTZ 50 mg/kg IP
[2] = 10 mg/kg intraperitoneal, 60 minutes before PTZ 50 mg/kg IP
[3] = 50 mg/kg intraperitoneal, 60 minutes before PTZ 50 mg/kg IP
[4] = 0.5 mg/kg intraperitoneal, 30 minutes before PTZ 50 mg/kg IP

SMILES | Latency to first convulsion [1] [s] | Number of events Myoclonic [1] | Number of events Clonic [1] | Number of events Tonic-Clonic [1] | further results
NC(C(=O)N1CCCC1)C(O)c1ccncc1 (racemic) [Compound A] | 342.8 ± 76.7 | 1.40 ± 0.4 | 0.2 ± 0.1 | 0.5 ± 0.2 | –
N[C@@H](C(=O)N1CCCC1)[C@@H](O)c1ccc(F)cc1 [Compound C] | 367.1 ± 78.30 | 2.00 ± 1.02 | 0.10 ± 0.10 | 0.0 ± 0.0 | –
N[C@@H](C(=O)N1CCCC1)[C@@H](O)c1ccncc1 [Compound B] | 208.8 ± 84.29 | 0.83 ± 0.31 | 0.83 ± 0.17 | 0.0 ± 0.0 | Latency to first convulsion [2]: 308.9 ± 92.55 s; Number of events Myoclonic [2]: 0.17 ± 0.17; Number of events Clonic [2]: 0.50 ± 0.22; Number of events Tonic-Clonic [2]: 0.33 ± 0.21
NCC1(CC(=O)O)CCCCC1 [Gabapentin, reference compound] | – | – | – | – | Latency to first convulsion [3]: 194.8 ± 30.41 s; Number of events Myoclonic [3]: 1.20 ± 0.55; Number of events Clonic [3]: 0.90 ± 0.18; Number of events Tonic-Clonic [3]: 0.20 ± 0.13
CN1C(=O)CN=C(c2ccccc2)c2cc(Cl)ccc21 [Diazepam, reference compound] | – | – | – | – | Latency to first convulsion [4]: 546.4 ± 53.60 s; Number of events Myoclonic [4]: 0.0 ± 0.0; Number of events Clonic [4]: 0.0 ± 0.0; Number of events Tonic-Clonic [4]: 0.60 ± 0.60
